Assay results as given in patent US9498483B2, “2,3,5-trisubstituted thiophene compounds and uses thereof” (priority 2010, dated 2016).

How the values were obtained:
[1] = tested on: HCV replicon I389luc-ubi-neo/NS3-3′/ET in ET (Huh-lucubineo-ET) cells; assay: Replicon assay (Biological Example 2), luciferase readout; format: cell-based; conditions: Hepatitis C virus
Procedure, shortened: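 EC50 values come from Hill fits of % inhibition of replicon-driven firefly luciferase, relative to no-compound wells. Compounds were serially diluted (10 points, 3-fold, 0.1 nM–50 μM final, 0.5% DMSO) onto ET replicon cells and read after 48 h.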

HCV polymerase = molecular target: T1, HCV polymerase (Hepatitis C virus genotype 1b, UniProt Q9WMX2); assay: Polymerase assay of Biological Example 1 (IC50 values of Table 3); format: biochemical; conditions: IC50 values of Table 3, polymerase assay of Biological Example 1; read-out: NS5B-enzyme3
T1 construct: (His)6 (C); made in house; host or cells: XL-1 cells (E. coli, by own knowledge)

[2] = ET cells, luciferase activity 48 hours after compound

SMILES | IC50 [1, 2] [nM] | IC50 (HCV polymerase) [nM] | IC50 ([1]; between 100 nM and 5.0 uM) [nM]
CN(C)[C@H]1CCN(c2ccc(S(=O)(=O)N3CC(=O)N(c4cc(-c5ccccc5)sc4C(=O)O)[C@H](C4CCCCC4)C3)cn2)C1 [Compound 156, 3-{(R)-2-Cyclohexyl-4-[6-((S)-3-dimethylamino-pyrrolidin-1-yl)-pyridine-3-sulfonyl]-6-oxo-piperazin-1-yl}-5-phenyl-thiophene-2-carboxylic acid] | ≤ 100 | 1 | 
O=C(O)c1sc(-c2ccccc2)cc1N1C(=O)CN(S(=O)(=O)c2ccc(N3CCN4CCCC4C3)nc2)C[C@H]1C1CCCCC1 (stereo partly drawn) [Compound 157, 3-{(R)-2-Cyclohexyl-4-[6-(hexahydro-pyrrolo[1,2-a]pyrazin-2-yl)-pyridine-3-sulfonyl]-6-oxo-piperazin-1-yl}-5-phenyl-thiophene-2-carboxylic acid] | ≤ 100 | 1 | 
CC(C)(C)OC(=O)N[C@H]1CCCN(c2ccc(S(=O)(=O)N3CC(=O)N(c4cc(-c5ccccc5)sc4C(=O)O)[C@H](C4CCCCC4)C3)cn2)C1 [Compound 158, 3-[(R)-4-((S)-3-tert-Butoxycarbonylamino-3,4,5,6-tetrahydro-2H-[1,2′]bipyridinyl-5′-sulfonyl)-2-cyclohexyl-6-oxo-piperazin-1-yl]-5-phenyl-thiophene-2-carboxylic acid] | ≤ 100 | 2 | 
CC(C)(C)OC(=O)N[C@H]1CCCN(c2ccc(S(=O)(=O)N3CC(=O)N(c4cc(-c5ccccc5)sc4C(=O)O)[C@H](C4CCCCC4)C3)cn2)C1 [Compound 159, 3-[(R)-4-((S)-3-tert-Butoxycarbonyl-amino-3,4,5,6-tetrahydro-2H-[1,2′]bipyridinyl-5′-sulfonyl)-2-cyclohexyl-6-oxo-piperazin-1-yl]-5-phenyl-thiophene-2-carboxylic acid] |  | 3 | 100 to 5000
CC(C)N1CCN(c2ccc(S(=O)(=O)N3CC(=O)N(c4cc(-c5ccccc5)sc4C(=O)O)[C@H](C4CCCCC4)C3)cn2)CC1 [Compound 160, 3-{(R)-2-Cyclohexyl-4-[6-(4-isopropyl-piperazin-1-yl)-pyridine-3-sulfonyl]-6-oxo-piperazin-1-yl}-5-phenyl-thiophene-2-carboxylic acid] | ≤ 100 | 1 | 
CC(C)(C)OC(=O)N1CCN(c2ccc(S(=O)(=O)N3CC(=O)N(c4cc(-c5ccccc5)sc4C(=O)O)[C@H](C4CCCCC4)C3)cn2)C[C@@H]1CO [Compound 161, (R)-4-{5-[(R)-4-(2-Carboxy-5-phenyl-thiophen-3-yl)-3-cyclohexyl-5-oxo-piperazine-1-sulfonyl]-pyridin-2-yl}-2-hydroxymethyl-piperazine-1-carboxylic acid tert-butyl ester] | ≤ 100 | 1 | 
C[C@H]1CN(c2ccc(S(=O)(=O)N3CC(=O)N(c4cc(-c5ccccc5)sc4C(=O)O)[C@H](C4CCCCC4)C3)cn2)CCN1C(=O)OC(C)(C)C [Compound 162, (S)-4-{5-[(R)-4-(2-Carboxy-5-phenyl-thiophen-3-yl)-3-cyclohexyl-5-oxo-piperazine-1-sulfonyl]-pyridin-2-yl}-2-methyl-piperazine-1-carboxylic acid tert-butyl ester] | ≤ 100 | 2 | 
CN(C)[C@@H]1CCN(c2ccc(S(=O)(=O)N3CC(=O)N(c4cc(-c5ccccc5)sc4C(=O)O)[C@H](C4CCCCC4)C3)cn2)C1 [Compound 163, 3-{(R)-2-Cyclohexyl-4-[6-((R)-3-dimethylamino-pyrrolidin-1-yl)-pyridine-3-sulfonyl]-6-oxo-piperazin-1-yl}-5-phenyl-thiophene-2-carboxylic acid] | ≤ 100 | 1 | 
C[C@@H]1CC[C@H](C)N1c1ccc(S(=O)(=O)N2CC(=O)N(c3cc(-c4ccccc4)sc3C(=O)O)[C@H](C3CCCCC3)C2)cn1 [Compound 164, 3-{(R)-2-Cyclohexyl-4-[6-((2S,5R)-2,5-dimethyl-pyrrolidin-1-yl)-pyridine-3-sulfonyl]-6-oxo-piperazin-1-yl}-5-phenyl-thiophene-2-carboxylic acid] | ≤ 100 | 1 | 
CC(C)(C)OC(=O)N[C@H]1CCN(c2ccc(S(=O)(=O)N3CC(=O)N(c4cc(-c5ccccc5)sc4C(=O)O)[C@H](C4CCCCC4)C3)cn2)C1 [Compound 165, 3-{(R)-4-[6-((S)-3-tert-Butoxycarbonylamino-pyrrolidin-1-yl)-pyridine-3-sulfonyl]-2-cyclohexyl-6-oxo-piperazin-1-yl}-5-phenyl-thiophene-2-carboxylic acid] | ≤ 100 | 2 | 
Cc1ccc(S(=O)(=O)N2CC(=O)N(c3cc(C#CC(C)(C)C)sc3C(=O)O)C(C3CCCCC3)C2)cc1 (stereo not drawn) [Compound 166, 3-[2-Cyclohexyl-6-oxo-4-(toluene-4-sulfonyl)-piperazin-1-yl]-5-(3,3-dimethyl-but-1-ynyl)-thiophene-2-carboxylic acid] | ≥ 5000 | 982 | 
C[C@@H]1CN(c2ccc(S(=O)(=O)N3CC(=O)N(c4cc(-c5ccccc5)sc4C(=O)O)[C@H](C4CCCCC4)C3)cn2)C[C@H](C)O1 [Compound 167, 3-{(R)-2-Cyclohexyl-4-[6-((2R,6S)-2,6-dimethyl-morpholin-4-yl)-pyridine-3-sulfonyl]-6-oxo-piperazin-1-yl}-5-phenyl-thiophene-2-carboxylic acid] | ≤ 100 | 3.5 | 
CC(C)(C)C#Cc1cc(N2C(=O)CN(S(=O)(=O)c3ccc(N4CCOCC4)nc3)CC2C2CCCCC2)c(C(=O)O)s1 (stereo not drawn) [Compound 168, 3-[2-Cyclohexyl-4-(6-morpholin-4-yl-pyridine-3-sulfonyl)-6-oxo-piperazin-1-yl]-5-(3,3-dimethyl-but-1-ynyl)-thiophene-2-carboxylic acid] | ≤ 100 | 3820 | 
O=C(O)c1sc(-c2ccccc2)cc1N1C(=O)CN(S(=O)(=O)c2cnc(N3CCCC3)c(Cl)c2)C[C@H]1C1CCCCC1 [Compound 169] | ≤ 100 | 3 | 
C[C@@H]1CCCN1c1ncc(S(=O)(=O)N2CC(=O)N(c3cc(-c4ccccc4)sc3C(=O)O)[C@H](C3CCCCC3)C2)cc1Cl [Compound 170, 3-{(R)-4-[5-Chloro-6-((R)-2-methyl-pyrrolidin-1-yl)-pyridine-3-sulfonyl]-2-cyclohexyl-6-oxo-piperazin-1-yl}-5-phenyl-thiophene-2-carboxylic acid] | ≤ 100 | 4 | 
COC[C@@H]1CCCN1c1ccc(S(=O)(=O)N2CC(=O)N(c3cc(-c4ccccc4)sc3C(=O)O)[C@H](C3CCCCC3)C2)cn1 [Compound 171, 3-{(R)-2-Cyclohexyl-4-[6-((S)-2-methoxymethyl-pyrrolidin-1-yl)-pyridine-3-sulfonyl]-6-oxo-piperazin-1-yl}-5-phenyl-thiophene-2-carboxylic acid] | ≤ 100 | 2 | 
Cc1cc(S(=O)(=O)N2CC(=O)N(c3cc(-c4ccccc4)sc3C(=O)O)[C@H](C3CCCCC3)C2)cnc1N1CCCC1 [Compound 172, 3-[(R)-2-Cyclohexyl-4-(5-methyl-6-pyrrolidin-1-yl-pyridine-3-sulfonyl)-6-oxo-piperazin-1-yl]-5-phenyl-thiophene-2-carboxylic acid] | ≤ 100 | 1.2 | 
Cc1cc(S(=O)(=O)N2CC(=O)N(c3cc(-c4ccccc4)sc3C(=O)O)[C@H](C3CCCCC3)C2)cnc1N1CCC[C@H]1C [Compound 173, 3-{(R)-2-Cyclohexyl-4-[5-methyl-6-((R)-2-methyl-pyrrolidin-1-yl)-pyridine-3-sulfonyl]-6-oxo-piperazin-1-yl}-5-phenyl-thiophene-2-carboxylic acid] | ≤ 100 | 1 | 
Cc1ccc(CN2CC(=O)N(c3cc(C#CC(C)(C)C)sc3C(=O)O)C(C3CCCCC3)C2)cc1 (stereo not drawn) [Compound 174, 3-[2-Cyclohexyl-4-(4-methyl-benzyl)-6-oxo-piperazin-1-yl]-5-(3,3-dimethyl-but-1-ynyl)-thiophene-2-carboxylic acid] | ≥ 5000 | 5110 | 
CC(C)(C)C#Cc1cc(N2C(=O)CNCC2C2CCCCC2)c(C(=O)O)s1 (stereo not drawn) [Compound 175, 3-(2-Cyclohexyl-6-oxo-piperazin-1-yl)-5-(3,3-dimethyl-but-1-ynyl)-thiophene-2-carboxylic acid] | ≥ 5000 | > 10000 | 
CC(C)c1ccc(S(=O)(=O)N2CC(=O)N(c3cc(C#CC(C)(C)C)sc3C(=O)O)[C@H](C3CCCCC3)C2)cc1 [Compound 176, 3-[(R)-2-Cyclohexyl-4-(4-isopropyl-benzenesulfonyl)-6-oxo-piperazin-1-yl]-5-(3,3-dimethyl-but-1-ynyl)-thiophene-2-carboxylic acid] | ≤ 100 | 1410 | 
CCN(CC)c1ccc(S(=O)(=O)N2CC(=O)N(c3cc(-c4ccccc4)sc3C(=O)O)[C@H](C3CCCCC3)C2)cn1 [Compound 177, 3-[(R)-2-Cyclohexyl-4-(6-diethylamino-pyridine-3-sulfonyl)-6-oxo-piperazin-1-yl]-5-phenyl-thiophene-2-carboxylic acid] | ≤ 100 | 2 | 
O=C(O)c1sc(-c2ccccc2)cc1N1C(=O)CN(S(=O)(=O)c2ccc(-c3ccccc3)nc2)C[C@H]1C1CCCCC1 [Compound 178, 3-[(R)-2-Cyclohexyl-6-oxo-4-(6-phenyl-pyridine-3-sulfonyl)-piperazin-1-yl]-5-phenyl-thiophene-2-carboxylic acid] |  | 1 | 100 to 5000
O=C(O)c1sc(-c2ccccc2)cc1N1C(=O)CN(S(=O)(=O)c2ccc(N3CCCCC3)nc2)C[C@H]1C1CCCCC1 [Compound 179, 3-[(R)-2-Cyclohexyl-6-oxo-4-(3,4,5,6-tetrahydro-2H-[1,2′]bipyridinyl-5′-sulfonyl)-piperazin-1-yl]-5-phenyl-thiophene-2-carboxylic acid] | ≤ 100 | 1 | 
